Earlier results in patent US6531115B1, “Analgesic and refreshing herbal composition and a process for preparing the same” (Council of Scientific & Industrial Research, priority 2001, dated 2003).

Test system: artificial toothache
Settings: rabbits having artificial toothache
In the case of `CC1CCC(C(C)C)C(O)C1` (stereo not drawn) [menthol], the “sedative effect on toothache” value is given as “weak”. For `Oc1ccccc1` [Phenol], the “sedative effect on toothache” value is given as “strongest action”. In the case of `CC12CCC(CC1=O)C2(C)C` (stereo not drawn) [camphor], the “sedative effect on toothache” value is given as “no sedative effect”. For `CC12CCC(CC1)C(C)(C)O2` [eucalyptol], the “sedative effect on toothache” value is given as “weak”.

Test system: toothache
Settings: in vivo
In the case of `CCO` [alcohol], the pain-relieving activity is given as “almost no effect”. For `Cc1ccc(C(C)C)c(O)c1` [Thymol], the pain-relieving activity is listed as “very weak”.
